Test system: MCH receptors
Experiment: MCH receptor activity class (method not given)
[1] = class by percent of control at 10^−7 M or IC50
[2] = class by percent of control at 10^-7 M or IC50
[3] = activity class 1-3: percent of control at 10^-7 M or IC50
[4] = class 1-3 by percent of control at 10^-7 M or IC50
[5] = MCH receptor activity class 1-3 (percent of control at 10^-7 M or IC50)

Cc1ccc(CNC(=O)[C@H]2CC[C@@H](Nc3nc(C)cc(N(C)C)n3)CC2)cc1 [compound 2809, cis-4-{[4-(dimethylamino)-6-methylpyrimidin-2-yl]amino}-N-(4-methylbenzyl)cyclohexanecarboxamide]
class [1]: 1 (Class 1: The value of percent of control at 10^−7 M was less than 40% or the value of IC50 was less than 50 nM.)

CCOC(=O)c1cccc(NC(=O)N[C@H]2CC[C@@H](Nc3cc(N(C)C)c4ccccc4n3)CC2)c1 [compound 2127]
class [2]: 3 (Class 3 The value of percent of control at 10^−7 M was more than 60% or the value of IC50 was more than 200 nM.)

CN(C)c1nc(N[C@H]2CC[C@@H](NC(=S)Nc3ccc(N4CCOCC4)nc3)CC2)nc2c1CCCC2 [compound 2087]
class [2]: 3 (Class 3 The value of percent of control at 10^−7 M was more than 60% or the value of IC50 was more than 200 nM.)

CN(C)c1ccnc(N[C@H]2CC[C@@H](NC(=O)OCc3ccccc3Cl)CC2)n1 [compound 1636]
class [3]: 3 (Class 3 The value of percent of control at 10^−7 M was more than 60% or the value of IC50 was more than 200 nM.)

CN(C)c1cc(N[C@H]2CC[C@@H](CNCCCCCCc3ccccc3)CC2)nc2ccccc12 [compound 1465]
class [2]: 3 (Class 3 The value of percent of control at 10^−7 M was more than 60% or the value of IC50 was more than 200 nM.)

CN(C)c1ccnc(N[C@H]2CC[C@@H](CNC(=O)c3csc4ccccc34)CC2)n1 [compound 436]
class [4]: 3 (Class 3 The value of percent of control at 10^−7 M was more than 60% or the value of IC50 was more than 200 nM.)

C/C(=C\c1ccccc1)C(=O)NC[C@H]1CC[C@@H](Nc2nc3c(c(N(C)C)n2)CCCC3)CC1 [compound 649]
class [2]: 3 (Class 3 The value of percent of control at 10^−7 M was more than 60% or the value of IC50 was more than 200 nM.)

COc1cc(COC(=O)NC[C@H]2CC[C@@H](Nc3nccc(N(C)C)n3)CC2)c([N+](=O)[O-])cc1OC [compound 1641]
class [3]: 3 (Class 3 The value of percent of control at 10^−7 M was more than 60% or the value of IC50 was more than 200 nM.)

Cc1cc(C(=O)NC[C@H]2CC[C@@H](Nc3nccc(N(C)C)n3)CC2)cc(C)c1OCc1ccccc1 [compound 946]
class [2]: 3 (Class 3 The value of percent of control at 10^−7 M was more than 60% or the value of IC50 was more than 200 nM.)

CCc1ccccc1NC(=O)NC[C@H]1CC[C@@H](Nc2nccc(N(C)C)n2)CC1 [compound 2423]
class [5]: 3 (Class 3 The value of percent of control at 10^−7 M was more than 60% or the value of IC50 was more than 200 nM.)

CN(C)c1cc(N[C@H]2CC[C@@H](NC(=S)Nc3ccccc3-c3ccccc3)CC2)nc2ccccc12 [compound 2290]
class [5]: 3 (Class 3 The value of percent of control at 10^−7 M was more than 60% or the value of IC50 was more than 200 nM.)

Cc1cc(N(C)C)nc(N[C@H]2CC[C@@H](CNC(=O)c3ccc(Cl)cc3)CC2)n1 [compound 2770, 4-chloro-N-[(cis-4-{[4-(dimethylamino)-6-methylpyrimidin-2-yl]amino}cyclohexyl)methyl]benzamide]
class [1]: 2 (Class 2: The value of percent of control at 10^−7 M was from 40% to 60% or the value of IC′50 was from 50 nM to 200 nM.)

CCCSc1ncccc1C(=O)N[C@H]1CC[C@@H](Nc2nccc(N(C)C)n2)CC1 [compound 302]
class [2]: 3 (Class 3 The value of percent of control at 10^−7 M was more than 60% or the value of IC50 was more than 200 nM.)

CN(C)c1ccnc(N[C@H]2CC[C@@H](CNC(=O)Oc3ccc(Br)cc3)CC2)n1 [compound 1643]
class [3]: 3 (Class 3 The value of percent of control at 10^−7 M was more than 60% or the value of IC50 was more than 200 nM.)

CN(C)c1ccnc(N[C@H]2CC[C@@H](CNC(=O)/C=C/c3ccc([N+](=O)[O-])cc3)CC2)n1 [compound 424]
class [4]: 1 (Class 1: The value of percent of control at 10^−7 M was less than 40% or the value of IC50 was less than 50 nM.)

CN(C)c1cc(N[C@H]2CC[C@@H](CNC(=O)OCC(C)(C)C)CC2)nc2ccccc12 [compound 1560]
class [3]: 3 (Class 3 The value of percent of control at 10^−7 M was more than 60% or the value of IC50 was more than 200 nM.)

CN(C)c1cc(N[C@H]2CC[C@@H](CNC(=O)c3ccccc3Cc3ccccc3)CC2)nc2ccccc12 [compound 799]
class [2]: 3 (Class 3 The value of percent of control at 10^−7 M was more than 60% or the value of IC50 was more than 200 nM.)

CN(C)c1ccnc(N[C@H]2CC[C@@H](NC(=S)Nc3ccc4c(c3)OCO4)CC2)n1 [compound 2350]
class [5]: 3 (Class 3 The value of percent of control at 10^−7 M was more than 60% or the value of IC50 was more than 200 nM.)

CN(C)c1cc(N[C@H]2CC[C@@H](NC(=O)c3cccnc3Oc3ccccc3)CC2)nc2ccccc12 [compound 135, N-(cis-4-{[4-(dimethylamino)quinolin-2-yl]amino}cyclohexyl)-2-phenoxynicotinamide]
class (MCH receptor, class by percent of control at 10^-7 M or IC50): 1 (Class 1: The value of percent of control at 10^−7 M was less than 40% or the value of IC50 was less than 50 nM.)

CN(C)c1nc(N[C@H]2CC[C@@H](NC(=O)Nc3ccc4ccccc4c3)CC2)nc2c1CCCC2 [compound 1863]
class [2]: 3 (Class 3 The value of percent of control at 10^−7 M was more than 60% or the value of IC50 was more than 200 nM.)

CN(C)c1nc(N[C@H]2CC[C@@H](CNC(=O)c3ccc(F)c(Cl)c3F)CC2)nc2c1CCCC2 [compound 624]
class [2]: 3 (Class 3 The value of percent of control at 10^−7 M was more than 60% or the value of IC50 was more than 200 nM.)

CN(C)c1cc(N[C@H]2CC[C@@H](NC(=O)Cc3c[nH]c4ccccc34)CC2)nc2ccccc12 [compound 711, N-(cis-4-{[4-(dimethylamino)quinolin-2-yl]amino}cyclohexyl)-2-(1H-indol-3-yl)acetamide]
class [2]: 1 (Class 1: The value of percent of control at 10^−7 M was less than 40% or the value of IC50 was less than 50 nM.)

CN(C)c1ccnc(N[C@H]2CC[C@@H](CNC(=O)c3cccc(Cl)c3F)CC2)n1 [compound 404]
class [2]: 3 (Class 3 The value of percent of control at 10^−7 M was more than 60% or the value of IC50 was more than 200 nM.)

COc1cc(C)c(CNC[C@H]2CC[C@@H](Nc3nc4c(c(N(C)C)n3)CCCC4)CC2)cc1C [compound 1437]
class [2]: 2 (Class 2: The value of percent of control at 10^−7 M was from 40% to 60% or the value of IC′50 was from 50 nM to 200 nM.)

CN(C)c1nc(N[C@H]2CC[C@@H](NC(=O)NC(C)(C)C)CC2)nc2c1CCCC2 [compound 1810]
class [2]: 3 (Class 3 The value of percent of control at 10^−7 M was more than 60% or the value of IC50 was more than 200 nM.)

Cc1cnc(N[C@H]2CC[C@@H](NC(=O)c3cccnc3Oc3ccccc3F)CC2)nc1N(C)C [compound 2891, N-(cis-4-{[4-(dimethylamino)-5-methylpyrimidin-2-yl]amino}cyclohexyl)-2-(2-fluorophenoxy)nicotinamide]
class [1]: 1 (Class 1: The value of percent of control at 10^−7 M was less than 40% or the value of IC50 was less than 50 nM.)

Cc1nc(N[C@H]2CC[C@@H](NC(=O)c3cccc(C#N)c3)CC2)nc(N(C)C)c1C [compound 2836, 3-cyano-N-(cis-4-{[4-(dimethylamino)-5,6-dimethylpyrimidin-2-yl]amino}cyclohexyl)benzamide]
class [1]: 1 (Class 1: The value of percent of control at 10^−7 M was less than 40% or the value of IC50 was less than 50 nM.)

Cc1nc(N[C@H]2CC[C@@H](NC(=O)c3cccc(OC(F)(F)F)c3)CC2)nc(N(C)C)c1C [compound 2856]
class [1]: 1 (Class 1: The value of percent of control at 10^−7 M was less than 40% or the value of IC50 was less than 50 nM.)
